Laboratory results as given in ChEMBL document CHEMBL5143744, “Discovery of Tenapanor: A First-in-Class Minimally Systemic Inhibitor of Intestinal Na+/H+ Exchanger Isoform 3” (ACS Med Chem Lett, 2022).
Each block holds one compound with its values, some of them ahead of it. Calls of active or inactive are those of the source. The calls are words filed in the database; no cut-off is given here.

Columns and labels:
[1] = biological target: Sodium/hydrogen exchanger 3 (Rattus norvegicus, UniProt P26433); test: Inhibition of rat NHE3 expressed in opossum kidney cells assessed as reduction in Na-HEPES buffer-mediated pH recovery in presence of NEH1 inhibitor ethyl isopropyl amiloride by BCECF-AM dye based fluorescence assay; format: cell-based, Kidney epithelial cell
Sequence of Sodium/hydrogen exchanger 3 (Rattus norvegicus, UniProt P26433) (P26433 whole entry): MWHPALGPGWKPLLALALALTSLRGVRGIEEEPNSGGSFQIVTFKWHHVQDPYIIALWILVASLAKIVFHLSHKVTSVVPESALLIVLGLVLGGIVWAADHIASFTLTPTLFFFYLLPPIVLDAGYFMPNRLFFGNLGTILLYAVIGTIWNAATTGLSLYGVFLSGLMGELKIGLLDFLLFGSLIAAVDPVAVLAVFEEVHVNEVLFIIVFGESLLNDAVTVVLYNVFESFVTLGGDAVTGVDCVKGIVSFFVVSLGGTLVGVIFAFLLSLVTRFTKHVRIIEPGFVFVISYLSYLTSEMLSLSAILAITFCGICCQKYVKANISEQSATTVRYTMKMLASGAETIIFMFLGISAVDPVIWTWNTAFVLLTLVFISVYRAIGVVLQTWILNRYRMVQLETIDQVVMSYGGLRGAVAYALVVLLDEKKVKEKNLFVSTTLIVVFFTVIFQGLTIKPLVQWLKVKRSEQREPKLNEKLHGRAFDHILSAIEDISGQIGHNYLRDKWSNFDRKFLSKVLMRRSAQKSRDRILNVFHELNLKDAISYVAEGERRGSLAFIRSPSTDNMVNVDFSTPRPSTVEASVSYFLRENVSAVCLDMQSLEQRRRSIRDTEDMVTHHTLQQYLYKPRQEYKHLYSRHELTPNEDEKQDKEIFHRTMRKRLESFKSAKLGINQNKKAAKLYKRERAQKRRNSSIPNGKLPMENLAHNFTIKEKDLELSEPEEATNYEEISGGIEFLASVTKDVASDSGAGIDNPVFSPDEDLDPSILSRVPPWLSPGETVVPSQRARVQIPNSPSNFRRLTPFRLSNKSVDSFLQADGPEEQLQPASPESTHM

[2] = In vivo inhibition of NEH3 in Sprague-Dawley rat assessed as fecal form score at 3 mg/kg, po administered via gavage measured after 6 hrs; format: functional
[3] = In vivo inhibition of NEH3 in Sprague-Dawley rat assessed as fecal water content at 3 mg/kg, po administered via gavage measured after 6 hrs; format: functional; set-up: scale not given: the % may be the effect or the level left
[4] = Cmax in Sprague-Dawley rat at 22 mg/kg, po administered via gavage by LC-MS/MS analysis; format: ADME, organism-based; set-up: dose 22 mg/kg, route po; details: in vivo
[5] = AUC in Sprague-Dawley rat at 22 mg/kg, po administered via gavage by LC-MS/MS analysis; details: in vivo
[6] = In vivo inhibition of NEH3 in Sprague-Dawley rat assessed as sodium excretion in urine at 3 mg/kg, po administered via gavage measured after 16 hrs by ion chromatography relative to control; set-up: scale not given: the % may be the effect or the level left
[7] = biological target: T1, Sodium/hydrogen exchanger 3 (Homo sapiens, UniProt P48764); test: Inhibition of human NHE3 expressed in opossum kidney cells assessed as reduction in Na-HEPES buffer-mediated pH recovery in presence of NEH1 inhibitor ethyl isopropyl amiloride by BCECF-AM dye based fluorescence assay; format: cell-based, Kidney epithelial cell
T1 sequence (P48764 whole entry): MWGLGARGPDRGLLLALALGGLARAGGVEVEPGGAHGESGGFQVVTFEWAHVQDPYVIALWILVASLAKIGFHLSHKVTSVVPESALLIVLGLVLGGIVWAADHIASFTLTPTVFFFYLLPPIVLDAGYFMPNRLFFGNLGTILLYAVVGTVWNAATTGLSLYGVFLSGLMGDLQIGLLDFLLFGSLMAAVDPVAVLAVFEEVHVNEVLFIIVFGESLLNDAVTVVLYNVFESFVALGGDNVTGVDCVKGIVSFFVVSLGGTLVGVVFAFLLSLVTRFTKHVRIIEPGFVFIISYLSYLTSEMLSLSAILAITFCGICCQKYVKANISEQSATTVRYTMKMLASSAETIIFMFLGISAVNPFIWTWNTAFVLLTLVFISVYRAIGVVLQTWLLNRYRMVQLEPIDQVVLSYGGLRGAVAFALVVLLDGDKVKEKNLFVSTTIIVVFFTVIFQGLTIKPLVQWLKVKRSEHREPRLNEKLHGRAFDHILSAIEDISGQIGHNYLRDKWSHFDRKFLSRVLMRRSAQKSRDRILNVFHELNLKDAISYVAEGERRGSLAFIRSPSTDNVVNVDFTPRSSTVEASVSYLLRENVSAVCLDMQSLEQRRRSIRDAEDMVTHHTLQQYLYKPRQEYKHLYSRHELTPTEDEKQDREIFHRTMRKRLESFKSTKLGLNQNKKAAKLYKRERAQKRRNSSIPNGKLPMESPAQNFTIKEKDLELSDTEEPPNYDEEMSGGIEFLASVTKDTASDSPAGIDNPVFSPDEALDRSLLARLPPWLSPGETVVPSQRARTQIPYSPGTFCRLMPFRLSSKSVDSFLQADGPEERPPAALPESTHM

[8] = Cmax in Sprague-Dawley rat at 1.8 mg/kg, po administered via gavage by LC-MS/MS analysis; format: ADME, organism-based; set-up: dose 1.8 mg/kg, route po; details: in vivo
[9] = AUC in Sprague-Dawley rat at 1.8 mg/kg, po administered via gavage by LC-MS/MS analysis; details: in vivo
[10] = Cmax in Sprague-Dawley rat at […], po administered via gavage by LC-MS/MS analysis; format: ADME, organism-based; set-up: dose 7.2 mg/kg, route po; details: in vivo
[11] = Dose normalized AUC in Sprague-Dawley rat at […], po administered via gavage by LC-MS/MS analysis; format: ADME, organism-based; details: in vivo, dose 7.2 mg/kg
[12] = Cmax in Sprague-Dawley rat at 23 mg/kg, po administered via gavage by LC-MS/MS analysis; format: ADME, organism-based; set-up: dose 23 mg/kg, route po; details: in vivo
[13] = AUC in Sprague-Dawley rat at 23 mg/kg, po administered via gavage by LC-MS/MS analysis; details: in vivo
[14] = Cmax in Sprague-Dawley rat at 28 mg/kg, po administered via gavage by LC-MS/MS analysis; format: ADME, organism-based; set-up: dose 28 mg/kg, route po; details: in vivo
[15] = AUC in Sprague-Dawley rat at 28 mg/kg, po administered via gavage by LC-MS/MS analysis; details: in vivo
Rattus norvegicus = test: In vivo inhibition of NEH3 in Sprague-Dawley rat assessed as reduction in sodium excretion in urine at 0.1 to 3 mg/kg, po administered via gavage measured after 16 hrs by ion chromatography; format: functional, organism-based; details: dose 0.1-3 mg/kg
[16] = In vivo inhibition of NEH3 in Sprague-Dawley rat assessed as increase in fecal water content at 0.1 to 3 mg/kg, po administered via gavage measured after 6 hrs; format: functional; set-up: scale not given: the % may be the effect or the level left; details: dose 0.1-3 mg/kg
[17] = Drug recovery in Sprague-Dawley rat feces at 0.3 mg/kg, po administered via gavage measured after 64 hrs by LC-MS/MS analysis; format: ADME, organism-based; details: faeces, read-out: Drug recovery
[18] = Drug metabolism in Sprague-Dawley rat feces at 0.3 mg/kg, po administered via gavage measured after 64 hrs by LC-MS/MS analysis; format: ADME, organism-based; details: in vivo
[19] = Cmax in Sprague-Dawley rat at 30 mg/kg, po administered via gavage by LC-MS/MS analysis; format: ADME, organism-based; set-up: dose 30 mg/kg, route po; details: in vivo
[20] = Drug metabolism in Sprague-Dawley rat at 30 mg/kg, po administered via gavage by LC-MS/MS analysis; format: ADME, organism-based; details: in vivo
hERG (KCNH2) = hERG (KCNH2) (Homo sapiens, UniProt Q12809); test: Inhibition of human ERG at 10 uM relative to control; format: toxicity
Sequence of hERG (KCNH2) (Q12809 whole entry): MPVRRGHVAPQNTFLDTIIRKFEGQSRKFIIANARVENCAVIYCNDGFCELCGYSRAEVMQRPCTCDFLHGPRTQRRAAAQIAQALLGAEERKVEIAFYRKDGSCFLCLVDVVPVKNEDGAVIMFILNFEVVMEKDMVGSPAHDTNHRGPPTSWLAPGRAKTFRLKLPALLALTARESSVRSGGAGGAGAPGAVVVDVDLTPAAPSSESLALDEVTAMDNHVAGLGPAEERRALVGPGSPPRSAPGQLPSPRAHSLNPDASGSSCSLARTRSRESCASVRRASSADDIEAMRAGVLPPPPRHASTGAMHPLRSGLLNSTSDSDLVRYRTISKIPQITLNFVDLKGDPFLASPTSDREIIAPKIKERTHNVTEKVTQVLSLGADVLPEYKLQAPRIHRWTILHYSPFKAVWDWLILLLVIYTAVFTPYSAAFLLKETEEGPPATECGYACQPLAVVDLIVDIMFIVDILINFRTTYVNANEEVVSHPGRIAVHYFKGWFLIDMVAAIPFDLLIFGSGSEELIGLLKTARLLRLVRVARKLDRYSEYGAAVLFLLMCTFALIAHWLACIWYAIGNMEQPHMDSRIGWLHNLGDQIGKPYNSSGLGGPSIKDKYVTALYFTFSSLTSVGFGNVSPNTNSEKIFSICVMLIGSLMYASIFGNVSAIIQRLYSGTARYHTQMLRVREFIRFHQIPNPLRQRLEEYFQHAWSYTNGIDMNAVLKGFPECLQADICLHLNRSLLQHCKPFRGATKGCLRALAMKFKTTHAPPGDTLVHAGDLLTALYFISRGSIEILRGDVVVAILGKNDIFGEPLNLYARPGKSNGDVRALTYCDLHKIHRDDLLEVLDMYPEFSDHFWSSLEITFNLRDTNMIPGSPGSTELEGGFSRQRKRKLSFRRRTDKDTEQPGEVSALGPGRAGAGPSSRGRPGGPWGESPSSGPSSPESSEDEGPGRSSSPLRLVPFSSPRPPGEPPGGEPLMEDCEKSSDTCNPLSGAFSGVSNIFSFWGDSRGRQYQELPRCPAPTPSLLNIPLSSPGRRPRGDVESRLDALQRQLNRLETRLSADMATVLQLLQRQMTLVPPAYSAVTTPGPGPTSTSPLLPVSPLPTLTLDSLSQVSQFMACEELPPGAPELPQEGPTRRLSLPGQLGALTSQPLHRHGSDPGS

[21] = Cmax in Sprague-Dawley rat at 17 mg/kg, po administered via gavage by LC-MS/MS analysis; format: ADME, organism-based; set-up: dose 17 mg/kg, route po; details: in vivo
[22] = AUC in Sprague-Dawley rat at 17 mg/kg, po administered via gavage by LC-MS/MS analysis; details: in vivo
[23] = Dose normalized AUC in Sprague-Dawley rat at 5.3 mg/kg, po administered via gavage by LC-MS/MS analysis; format: ADME, organism-based; details: in vivo
[24] = Cmax in Sprague-Dawley rat at 19 mg/kg, po administered via gavage by LC-MS/MS analysis; format: ADME, organism-based; set-up: dose 19 mg/kg, route po; details: in vivo
[25] = AUC in Sprague-Dawley rat at 19 mg/kg, po administered via gavage by LC-MS/MS analysis; details: in vivo
[26] = Drug recovery in Sprague-Dawley rat feces at 0.1 mg/kg, po administered via gavage measured after 72 hrs by LC-MS/MS analysis; format: ADME, organism-based; details: faeces, read-out: Drug recovery
[27] = Drug metabolism in Sprague-Dawley rat feces at 0.1 mg/kg, po administered via gavage measured after 72 hrs by LC-MS/MS analysis; format: ADME, organism-based; details: in vivo
[28] = Toxicity in Sprague-Dawley rat assessed as gross pathological changes at 30 mg/kg, po administered for 7 days measured on day 8 by necropsy; format: organism-based; details: in vivo, 192 h, time 8 day
[29] = Toxicity in Sprague-Dawley rat assessed as pathological changes at 30 mg/kg, po administered for 7 days measured on day 8 by microscopy; format: organism-based; details: in vivo, 192 h, time 8 day
[30] = Toxicity in Sprague-Dawley rat assessed as change in alanine aminotransferase level at 30 mg/kg, po administered for 7 days measured on day 8; format: organism-based; details: in vivo, 192 h, time 8 day
[31] = Toxicity in Sprague-Dawley rat assessed as change in aspartate aminotransferase level at 30 mg/kg, po administered for 7 days measured on day 8; format: organism-based; details: in vivo, 192 h, time 8 day
[32] = Toxicity in Sprague-Dawley rat assessed as diarrhea at 30 mg/kg, po administered for 7 days; format: organism-based; details: in vivo, 168 h, time 7 day

Structure (SMILES): CN1Cc2c(Cl)cc(Cl)cc2C(c2cccc(S(=O)(=O)NCCOCCOCCNC(=O)c3ccc(C(=O)NCCOCCOCCNS(=O)(=O)c4cccc(C5CN(C)Cc6c(Cl)cc(Cl)cc65)c4)cc3)c2)C1 (racemic)
- IC50 [1]: 6.31 µM
- Activity [2]: 2
- Activity [3]: 58%
- Cmax [4]: < 2 ng/mL
- AUC [5]: < 8 ng·h/mL
- Activity [6]: 24%

Structure (SMILES): CN1Cc2c(Cl)cc(Cl)cc2C(c2cccc(S(=O)(=O)NCCOCCOCCOCCNC(=O)NCCOCCOCCOCCNS(=O)(=O)c3cccc(C4CN(C)Cc5c(Cl)cc(Cl)cc54)c3)c2)C1 (racemic)
- IC50 [7]: 0.2 µM
- IC50 [1]: 0.1 µM
- Activity [2]: 1
- Activity [3]: 50%
- Cmax [8]: < 20 ng/mL
- AUC [9]: < 75 ng·h/mL
- Activity [6]: 87%

Structure (SMILES): CN1Cc2c(Cl)cc(Cl)cc2C(c2cccc(S(=O)(=O)NCCOCCOCCOCCNC(=O)c3ccc(C(=O)NCCOCCOCCOCCNS(=O)(=O)c4cccc(C5CN(C)Cc6c(Cl)cc(Cl)cc65)c4)cc3)c2)C1 (racemic)
- IC50 [7]: 0.0501 µM
- IC50 [1]: 0.0251 µM
- Activity [2]: 1
- Activity [3]: 53%
- Cmax [10]: < 4 ng/mL
- AUC [11]: < 12 ng·h/mL
- Activity [6]: 87%

Structure (SMILES): CN1Cc2c(Cl)cc(Cl)cc2C(c2ccc(S(=O)(=O)NCCOCCOCCNC(=O)c3ccc(C(=O)NCCOCCOCCNS(=O)(=O)c4ccc(C5CN(C)Cc6c(Cl)cc(Cl)cc65)cc4)cc3)cc2)C1 (racemic)
- IC50 [1]: 0.398 µM
- Activity [2]: 2
- Activity [3]: 56%
- Cmax [12]: < 3 ng/mL
- AUC [13]: < 8 ng·h/mL
- Activity [6]: 45%

Structure (SMILES): CN1Cc2c(Cl)cc(Cl)cc2C(c2cccc(S(=O)(=O)NCCOCCOCCOCCNC(=O)CCC(=O)NCCOCCOCCOCCNS(=O)(=O)c3cccc(C4CN(C)Cc5c(Cl)cc(Cl)cc54)c3)c2)C1 (racemic)
- Activity [2]: 1.5
- Activity [3]: 54%
- Cmax [14]: < 2 ng/mL
- AUC [15]: < 8 ng·h/mL
- Activity [6]: 56%

- dose excreted at 64 h [17]: 117%
- Drug metabolism [18]: Metabolite_Notdetected
- Cmax ([19]; Sprague-Dawley, read-out: Cmax): < 2 ng/mL
- Drug metabolism [20]: Metabolite_Notdetected
Structure (SMILES): CN1Cc2c(Cl)cc(Cl)cc2[C@H](c2cccc(S(=O)(=O)NCCOCCOCCNC(=O)COCC(=O)NCCOCCOCCNS(=O)(=O)c3cccc([C@@H]4CN(C)Cc5c(Cl)cc(Cl)cc54)c3)c2)C1
- inhibition (Rattus norvegicus): Active
- Activity [16]: 10%
- inhibition at 10 µM (hERG (KCNH2)): < 50%

Structure (SMILES): CN1Cc2c(Cl)cc(Cl)cc2C(c2ccc(S(=O)(=O)NCCOCCOCCNC(=O)NCCOCCOCCNS(=O)(=O)c3ccc(C4CN(C)Cc5c(Cl)cc(Cl)cc54)cc3)cc2)C1 (racemic)
- Activity [2]: 1
- Activity [3]: 49%
- Cmax [21]: < 2 ng/mL
- AUC [22]: < 8 ng·h/mL
- Activity [6]: 107%

Structure (SMILES): CN1Cc2c(Cl)cc(Cl)cc2C(c2ccc(S(=O)(=O)NCCOCCOCCOCCNC(=O)NCCOCCOCCOCCNS(=O)(=O)c3ccc(C4CN(C)Cc5c(Cl)cc(Cl)cc54)cc3)cc2)C1 (configuration not stated)
- Activity [3]: 60%
- AUC [23]: < 19 ng·h/mL
- Activity [6]: 25%

Structure (SMILES): CN1Cc2c(Cl)cc(Cl)cc2C(c2ccc(S(=O)(=O)NCCOCCOCCOCCNC(=O)c3ccc(C(=O)NCCOCCOCCOCCNS(=O)(=O)c4ccc(C5CN(C)Cc6c(Cl)cc(Cl)cc65)cc4)cc3)cc2)C1 (racemic)
- IC50 [7]: 0.0398 µM
- IC50 [1]: 0.0126 µM
- Activity [2]: 1.5
- Activity [3]: 56%
- Cmax [24]: < 3 ng/mL
- AUC [25]: < 9 ng·h/mL
- Activity [6]: 50%

Structure (SMILES): CN1Cc2c(Cl)cc(Cl)cc2[C@H](c2cccc(S(=O)(=O)NCCOCCOCCNC(=O)NCCCCNC(=O)NCCOCCOCCNS(=O)(=O)c3cccc([C@@H]4CN(C)Cc5c(Cl)cc(Cl)cc54)c3)c2)C1 [TENAPANOR]
- IC50 [7]: 0.000501 µM
- IC50 [1]: 0.0158 µM
- inhibition (Rattus norvegicus): Active
- Activity [16]: 10%
- dose excreted at 72 h [26]: 92%
- Drug metabolism [27]: Metabolite_Detected
- Cmax [19]: < 3 ng/mL
- Drug metabolism [20]: Metabolite_Notdetected
- inhibition at 10 µM (hERG (KCNH2)): < 50%
- Activity [28]: Non-Toxic
- Activity [29]: Non-Toxic
- Activity [30]: Non-Toxic
- Activity [31]: Non-Toxic
- Activity [32]: Toxic
